Test [1] deals with T1, Cholecystokinin receptor type A (Cavia porcellus, UniProt Q63931).
T1 sequence (Q63931 whole entry): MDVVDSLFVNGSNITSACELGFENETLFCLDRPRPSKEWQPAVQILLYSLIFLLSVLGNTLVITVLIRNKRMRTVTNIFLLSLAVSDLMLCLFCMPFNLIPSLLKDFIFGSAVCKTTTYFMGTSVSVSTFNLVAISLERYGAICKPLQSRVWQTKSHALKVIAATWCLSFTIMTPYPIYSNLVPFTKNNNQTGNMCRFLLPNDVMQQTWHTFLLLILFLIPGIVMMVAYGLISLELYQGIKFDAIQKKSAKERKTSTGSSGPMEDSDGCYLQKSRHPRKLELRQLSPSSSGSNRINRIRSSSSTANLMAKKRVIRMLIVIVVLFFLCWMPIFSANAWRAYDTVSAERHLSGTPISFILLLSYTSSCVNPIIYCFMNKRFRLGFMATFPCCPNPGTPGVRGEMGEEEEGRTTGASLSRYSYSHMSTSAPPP
Kind of test: Apparent affinity to inhibit binding of [3H]pCCK-8 to Cholecystokinin type A receptor of guinea pig pancreatic membranes.

Test [2] is filed under the species Cavia porcellus. Kind of test: (§1) Antagonist activity expressed as binding constant, evaluated from the potency to stimulate Amylase release from guinea pig pancreatic acini.
For test [3], the species on record is Cavia porcellus. In words: Antagonist activity expressed as binding constant, evaluated from the potency to stimulate Amylase release from guinea pig pancreatic acini;Not significant.
Test [4] in a line: Antagonist activity expressed as pA2, evaluated from the potency to stimulate amylase release from guinea pig pancreatic acini. It counts as functional, Cavia porcellus.
Test [5] is described as follows: as §1. Also noted: species or system Cavia porcellus.
Test [6] is described as follows: Agonist activity expressed as effective concentration that causes 50% stimulation of amylase release from guinea pig pancreatic acini.; ND means no significant activity at 10e-4 M.
The nature of test [7]: Antagonist activity expressed as pA2, evaluated from the potency to stimulate Amylase release from guinea pig pancreatic acini. It counts as functional, Cavia porcellus.
Test [8] can be described thus: Agonist activity expressed as effective concentration that causes 50% stimulation of Amylase release from guinea pig pancreatic acini.; ND means no significant activity at 10e-4 M. Format: functional, Cavia porcellus.
A short description of test [9]: Agonist activity expressed as effective concentration that causes 50% stimulation of amylase release from guinea pig pancreatic acini;Not significant. Format: functional, Cavia porcellus.
Test [10] in a line: Antagonist activity expressed as binding constant, evaluated from the potency to stimulate Amylase release from guinea pig pancreatic acini;Not significant at 10e-4 M. Particulars: Cavia porcellus.
The nature of test [11]: Agonist activity expressed as effective concentration that causes 50% stimulation of amylase release from guinea pig pancreatic acini. It counts as functional, Cavia porcellus.
The nature of test [12]: Agonist activity expressed as effective concentration that causes 50% stimulation of amylase release from guinea pig pancreatic acini.; ND means no significant activity at 10e-4 M. It counts as functional, Cavia porcellus.

Activity calls are given as the source filed them. The rule behind the calls is not given here. Where a SMILES comes first, the peptide text is derived from it. [ ]: non-standard residue; d: D form. The star is where a group is joined. Phe(4-SO3H) = N[C@@H](Cc1ccc(S(=O)(=O)O)cc1)C(=O)O; sY = N[C@@H](Cc1ccc(OS(=O)(=O)O)cc1)C(=O)O; Nle = CCCC[C@H](N)C(=O)O; Orn = NCCC[C@H](N)C(=O)O; Cbz = O=C(OCc1ccccc1)*; Boc = CC(C)(C)OC(=O)*

Here are results for 12 compounds from ChEMBL document CHEMBL1125030, “Boc-Trp-Orn(Z)-Asp-NH2 and derivatives: a new family of CCK antagonists” (J Med Chem, 1990).

In the case of `CC(C)(C)OC(=O)N[C@@H](Cc1c[nH]c2ccccc12)C(=O)N[C@@H](CCCN)C(=O)N[C@@H](CC(=O)O)C(N)=O` (Boc-Trp-[Orn]-Asp-NH2), in test [1], the Ki was 1000 µM.

As usually defined, the Kb is the affinity of an antagonist, worked out from how it opposes an agonist. `CCCC[C@H](NC(=O)[C@H](Cc1ccc(S(=O)(=O)O)cc1)NC(=O)OC(C)(C)C)C(=O)NCC(=O)N[C@@H](Cc1c[nH]c2ccccc12)C(=O)N[C@@H](CCCNC(=O)OCc1ccccc1)C(=O)N[C@@H](CC(=O)O)C(=O)N[C@@H](Cc1ccccc1)C(N)=O` (Boc-[Phe(4-SO3H)][Nle]GW[Orn](Cbz)DF-NH2) had a Kb in the test filed under Cavia porcellus [2] of 0.49 µM.

By pA2 is commonly meant a measure of antagonist potency on a negative log scale. Read a low pA2 as lower antagonist potency. In the case of `CC(C)(C)OC(=O)NCCC[C@H](NC(=O)[C@H](Cc1c[nH]c2ccccc12)NC(=O)OC(C)(C)C)C(=O)N[C@@H](CC(=O)O)C(=O)N[C@@H](Cc1ccccc1)C(N)=O` (Boc-W[Orn](Boc)DF-NH2), in the test listed under Cavia porcellus [3], the Kb result was “inactive”. Besides, the Ki in test [1] amounted to 5.2 µM. In addition, the pA2 in test [4] was found to be 4.58. Moreover, in [5], the EC50 amounted to 13.6 µM.

With `CC(C)(C)OC(=O)N[C@@H](Cc1c[nH]c2ccccc12)C(=O)N[C@@H](CCCNC(=O)OCc1ccccc1)C(=O)N[C@@H](CC(=O)O)C(N)=O` (Boc-Trp-[Orn](Cbz)-Asp-NH2), in the test filed under Cavia porcellus [3], the Kb is 0.23 µM. The EC50 result in [6] is listed as “Not Active”. The Ki in test [1] came to 0.2 µM. Further, in test [4], the pA2 worked out at 6.63.

`CCCC[C@H](NC(=O)[C@H](Cc1ccc(OS(=O)(=O)O)cc1)NC(=O)OC(C)(C)C)C(=O)NCC(=O)N[C@@H](Cc1c[nH]c2ccccc12)C(=O)N[C@@H](CCCNC(=O)OCc1ccccc1)C(=O)N[C@@H](CC(=O)O)C(=O)N[C@@H](Cc1ccccc1)C(N)=O` (stereo in doubt; 1): the pA2 in [7] is recorded as 6.32. Besides, in [1], the Ki was found to be 0.31 µM. In test [8], the EC50 entry is “Not Active”.

`CCCC[C@H](NC(=O)[C@H](Cc1ccc(S(=O)(=O)O)cc1)NC(=O)OC(C)(C)C)C(=O)NCC(=O)N[C@@H](Cc1c[nH]c2ccccc12)C(=O)N[C@@H](CCCNC(=O)OCc1ccccc1)C(=O)N[C@@H](CC(=O)O)C(N)=O` (Boc-[Phe(4-SO3H)][Nle]GW[Orn](Cbz)D-NH2): the EC50 entry in [6] is “Not Active”. The compound further gave a Kb in the test filed under Cavia porcellus [2] of 0.22 µM.

Consider `CC(C)(C)OC(=O)N[C@@H](Cc1c[nH]c2ccccc12)C(=O)N[C@@H](CCCN)C(=O)N[C@@H](CC(=O)O)C(=O)N[C@@H](Cc1ccccc1)C(N)=O` (Boc-W[Orn]DF-NH2), for which, in test [9], the EC50 turned out to be 13.8 µM. Moreover, the Ki in [1] turned out to be 14 µM. Moreover, the Kb entry in test [10] was “inactive”.

For `CCCC[C@H](NC(=O)[C@H](Cc1ccc(OS(=O)(=O)O)cc1)NC(=O)OC(C)(C)C)C(=O)NCC(=O)N[C@@H](Cc1c[nH]c2ccccc12)C(=O)N[C@@H](CCCNC(=O)OCc1ccccc1)C(=O)N[C@@H](CC(=O)O)C(=O)N[C@@H](Cc1ccccc1)C(N)=O` (stereo in doubt; 2), the Ki in [1] amounted to 0.34 µM. In addition, the EC50 in test [11] came to 0.022 µM.

As for `CCCC[C@H](NC(=O)[C@H](Cc1ccc(S(=O)(=O)O)cc1)NC(=O)OC(C)(C)C)C(=O)NCC(=O)N[C@@H](Cc1c[nH]c2ccccc12)C(=O)N[C@@H](CCCNC(=O)OC(C)(C)C)C(=O)N[C@@H](CC(=O)O)C(=O)N[C@@H](Cc1ccccc1)C(N)=O` (Boc-[Phe(4-SO3H)][Nle]GW[Orn](Boc)DF-NH2), in test [12], the EC50 result is reported as “Not Active”. Further, the Ki in [1] is 0.66 µM. Further, in test [4], the pA2 was 5.94. In addition, the Kb in the test listed under Cavia porcellus [2] came to 1.1 µM.

For the compound `CCCC[C@H](NC(=O)[C@H](Cc1ccc(OS(=O)(=O)O)cc1)NC(=O)OC(C)(C)C)C(=O)NCC(=O)N[C@@H](Cc1c[nH]c2ccccc12)C(=O)N[C@@H](CCCNC(=O)OCc1ccccc1)C(=O)N[C@@H](CC(=O)O)C(N)=O` (Boc-[sY][Nle]GW[Orn](Cbz)D-NH2), the Ki in test [1] was 0.23 µM. In addition, the pA2 in [4] was determined as 6.64.

Take `CC(C)(C)OC(=O)NCCC[C@H](NC(=O)[C@H](Cc1c[nH]c2ccccc12)NC(=O)OC(C)(C)C)C(=O)N[C@@H](CC(=O)O)C(N)=O` (Boc-Trp-[Orn](Boc)-Asp-NH2): the Kb in the test listed under Cavia porcellus [3] is 0.23 µM. The EC50 result in [6] is “Not Active”. Also, in test [1], the Ki was determined as 29 µM. For the same compound, the pA2 in [4] is reported as 4.62.

For the compound `CC(C)(C)OC(=O)N[C@@H](Cc1c[nH]c2ccccc12)C(=O)N[C@@H](CCCNC(=O)OCc1ccccc1)C(=O)N[C@@H](CC(=O)O)C(=O)N[C@@H](Cc1ccccc1)C(N)=O` (Boc-W[Orn](Cbz)DF-NH2), the EC50 entry in [6] is “Not Active”. Besides, the Ki in test [1] came out at 0.34 µM. The compound also registered a pA2 in test [4] of 6.25. For the same compound, in the test listed under Cavia porcellus [2], the Kb turned out to be 0.57 µM.
